Data from PubChem BioAssay AID1053144 (Broad Institute, 2014).

system: NPC TCF/LEF luciferase reporter, Wnt3a EC25, 24 h; assay: Wnt/beta-catenin signaling activators, dose response, cell-based, iPS-derived NPC, luciferase, Wnt3a, cherry-pick (AID 1053144);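 note: Wnt3a stimulus is conditioned medium from Wnt3a-transfected mouse L cells at 5% in well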

Structure (SMILES)	AC30 [µM]
COCCNC(=O)c1ccc2c3n(nc2c1)-c1ccc(C)cc1CO3	10.7
CC1CCc2c(C(=O)Nc3ccccn3)csc2C1 (configuration not stated)	4.65
O=C(c1cc(-c2cccc(O)c2)on1)N1CCCCCC1	4.78
Cc1ccc(/C=N/Nc2nc3ccccc3[nH]2)s1	16.1
Fc1ccccc1-c1ccc(/C=N/Nc2nc3ccccc3[nH]2)o1	17.3
Cc1cc(N(C)C)ccc1N=Nc1ccc2ncccc2c1	2.2
O=C(COc1ccc(F)cc1Br)N1CCc2ccccc21	4.78
COc1ccc(-c2ccc(SCC(=O)Nc3cc(C)on3)nn2)cc1OC	15.1
Cc1ccc(OCC(=O)Nc2ccccc2C(N)=O)cc1	7.04
CCCNC(=O)c1oc2ccc3c(c2c1C)C=CC(C)(C)O3	8.63
O=C(NC1CCCC1)c1cc(-c2ccccc2)on1	8.71
COc1ccc(/C=N/Nc2ccccn2)cc1O	11.6
COc1cc(C(=O)O/N=C2\C=CC(=O)C(C)=C2)cc(OC)c1OC	16
CC(C)C1COC(c2cccc3ccccc23)=N1 (configuration not stated)	4.78
COCCNC(=O)c1cc2c(s1)-c1ccc(Cl)cc1SC2	11.2
CC(C)c1ccc(NC(=O)c2ccccc2NC(=O)C2CCCCC2C(=O)O)cc1 (configuration not stated)	15.5
CN1CCSc2ccc(C(=O)Nc3cc(F)ccc3F)cc21	2.35
CC1(C)CC(=O)C2=C(C1)c1c(ccc3ccccc13)NC2c1ccco1 (configuration not stated)	14.8
Oc1ccc(Br)cc1-c1cc(-c2ccccc2F)[nH]n1	12.9
Cc1ccc2cc(/C=C/C(=O)c3ccco3)c(Cl)nc2c1	16.8
N/C(=N\OC(=O)c1ccco1)c1ccc(Cl)cc1	11.8
O=C(Nc1ncccc1O)c1ccc2c(c1)OCO2	7.75
Cc1oc(=O)c(NC(=O)c2cccc(Cl)c2)cc1C(=O)c1ccccc1	7.11

Structure (SMILES)	AC30 [µM]
Nc1ccccc1C(=O)/C=C/c1ccc2c(c1)OCO2	2.2
O=c1[nH]c(=O)n([C@H]2C[C@H](O)[C@@H](CO)O2)cc1Br	13.2
CSc1ccc(C(=O)/C=C/c2ccc(N)cc2)cc1	6.32
Cc1ccc2nc(-c3ccc(NS(=O)(=O)c4c(C)n(C)c(=O)n(C)c4=O)cc3)sc2c1	2.2
COc1ccc2sc(NC(=O)CC(C)C)nc2c1	13.4
CCCc1cc(C(=O)Nc2cccc(C(C)=O)c2)no1	10.5
O=C(C=Cc1ccco1)c1ccc2ccccc2c1	11.2
Cc1cc(C)n(CCC(=O)N/N=C/c2ccc(Br)c([N+](=O)[O-])c2)n1	17.2
O=c1/c(=C\c2ccc(F)cc2)sc2n1CCCN=2	12.5
Nc1nc(-c2cc3ccccc3o2)cs1	4.78
CCC(=O)Nc1sc(C(=O)Nc2ccccc2)c(C)c1C(=O)OC	9.81
O=C(/C=C/c1ccco1)Nc1ccc2c(c1)OCO2	12.1
Cc1ccc2nc(-c3ccc(NC(=O)CSCC(=O)O)cc3)sc2c1	2.04
Nc1ccc2nc(-c3ccccc3)cnc2c1	8.28
CCCC(=O)Nc1ccc(C(=O)COC(=O)C2CC2)cc1	5.63
COc1ccc(/C=C/c2ccncc2)cc1	11.1
COc1cc(/C=C/c2ccc3cccc(O)c3n2)cc(OC)c1OC	13.7
CCC(=O)NC1=C(Nc2ccc(N)cc2)C(=O)c2ccccc2C1=O	5.42
COc1ccccc1OCc1cc(C(=O)N(C)CCC2CCOCC2)no1	9.94
Cc1ccc2oc(-c3cccc(NC(=O)c4ccccn4)c3)nc2c1	10.9
O=C1C=C(c2ccc3[nH]ccc3c2)CCC1	10.1
COc1ccc2[nH]c(=O)c(CNc3ccccc3C)cc2c1	17.3
Cc1csc(=NC(=O)c2ccccc2)n1C	8.72

Structure (SMILES)	AC30 [µM]
COc1ccc2oc(C(=O)c3ccccc3)c(N)c2c1	7.18
CCc1ccccc1-n1c(SCC(=O)N2CCCC2)nnc1-c1ccccn1	8.48
COc1cccc(/C=C2\N=C3CCCCCN3C2=O)c1	16.1
CCOC(=O)C1=C(COC(=O)c2cccc(N(C)C)c2)NC(=O)NC1C (configuration not stated)	11.8
O=C(Nc1ccc(Cl)cc1)OCc1ccccn1	9.15
c1ccc2c(c1)oc1c(Nc3ccc4c(c3)OCO4)ncnc12	4.78
O=C1c2ccccc2C(=O)C1c1ccc(O)cc1	14.7
O=C(/C=C/c1ccc(O)c(O)c1)c1ccccc1O	8.06
CC(=O)Nc1sc2c(c1-c1nc3ccccc3s1)CN(C(C)C)CC2	2.43
COc1ccccc1CNC(=O)COc1ccccc1C(=O)c1cnn(-c2ccccc2)c1	10
Cc1ccc(-n2ncc3c(Nc4cccc(C(=O)O)c4)ncnc32)cc1	4.78
CCOC(=O)c1c(Nc2ccc(OC)cc2)n[nH]c1C	11.4
O=C(N/N=C/C(Br)=C\c1ccccc1)c1cccs1	13.7
O=C(Nc1ccc(NC(=O)C2CCCCC2)nc1)c1cccs1	10.1
Cc1cc(O)c(NC(=O)c2cccc([N+](=O)[O-])c2)cc1C	11.2
Cc1ccccc1NC(=O)c1cc2ccccn2n1	4.78
O=c1cc(-c2cccs2)oc2ccc(Cl)cc12	5.83
CCc1ccccc1NC(=O)c1cccc(NC(=O)/C=C/c2ccco2)c1	13.2
O=C(NCCc1ccccc1)c1cc(-c2ccco2)on1	10.7
Cn1c(SCC(=O)c2ccccc2)nnc1-c1ccco1	4.78
COc1ccc(N2COC3c4cccc5cccc(c45)C32)cc1 (configuration not stated)	17.8
O=C(COC(=O)c1cccs1)c1ccc2ccccc2c1	9.52
COc1ccc(N=C(C)c2sc3ccccc3c2O)cc1	4.78

Structure (SMILES)	AC30 [µM]
COc1ccc(CCNC(=O)c2cc(-c3ccco3)on2)cc1OC	11.4
O=[N+]([O-])c1ccccc1-c1nc(-c2ccc(Br)o2)no1	4.78
CSc1ccccc1C(=O)Nc1ccc2c(c1)CCC2	3.13
COc1cccc(NC(=O)c2csc3c2CCCC3)c1	4.78
O=c1oc(CCO)cc2ccc(C#Cc3ccsc3)cc12	4.78
c1ccc(-c2cc(-c3ccccc3)on2)cc1	4.78
O=C(c1ccc(-c2ccc(Cl)cc2Cl)o1)N1CCOCC1	8.53
O=C(O)c1ccc(N=Nc2c(O)[nH]c3cc(Cl)ccc23)cc1	4.78
CCOC(=O)N1CCC(Nc2c(NCCCN3CCN(c4ccc(OC)cc4)CC3)c(=O)c2=O)CC1	19.5
CC1=NN(c2ccccc2)C(=O)C1N=Nc1ccccc1 (configuration not stated)	4.78
O=C(Nc1nc2cc3c(cc2s1)OCCO3)c1ccc([N+](=O)[O-])o1	9.12
Cc1cc(-c2nc3ccccc3c(=O)o2)ccc1[N+](=O)[O-]	16.2
Cc1[nH]c2ccccc2c1/C=N/Nc1nc2ccccc2[nH]1	5.61
COc1ccc(-c2ccc3ccccc3n2)cc1OC	9.49
O=C(NCCCn1ccnc1)c1cc(-c2ccccc2)on1	7.41
CC(=O)N(C)c1ccc(NC(=O)c2ccco2)cc1	11.6
CCOC(=O)c1ccc(-c2ccc(CO)o2)cc1	17.5
CNC(=O)c1ccsc1NC(=O)c1sc2ccccc2c1Cl	12.4
O=[N+]([O-])c1cccc(-c2nnc(-c3ccccc3F)o2)c1	8.84
Cc1cccc(C(=O)OCC(=O)N2CCCCCC2)c1C	12.1
Oc1ccccc1-c1nnc(COc2ccc(Cl)cc2Cl)o1	10.5
COc1cccc(-c2csc(NC(=O)C3CC3)n2)c1	13.9
Cc1cccc(/C(N)=N/OC(=O)c2ccc(Br)o2)c1	11.7

Structure (SMILES)	AC30 [µM]
O=C(Nc1ncccc1O)c1ccc(Oc2ccccc2)cc1	12.3
CCOc1ccc(CCNC(=O)/C=C/c2ccco2)cc1OCC	13.5
COc1cccc(-c2nnc(SCC(=O)N(C(C)C)C(C)C)o2)c1	20.7
O=C1Nc2ccccc2S/C1=C/c1cccs1	12.9
Cc1ccc(Nc2ncccc2C(N)=O)cc1[N+](=O)[O-]	5.42
Nc1ccc2nc3c(=O)n(C4CCCCC4)c(=O)[nH]c3nc2c1	10.5
Fc1ccccc1-c1nc(-c2ccncc2)no1	2.79
O=C(NCC1CCCO1)c1cc(-c2ccc(F)cc2)no1 (configuration not stated)	15.9
Cc1ccc2nc(-c3ccc(NS(=O)(=O)c4ccc(F)cc4)cc3)sc2c1	4.78
Cc1ccc2cc(NC(=O)c3cccc(F)c3)ccc2n1	10.5
Nc1ccc(-c2nc3cc([N+](=O)[O-])ccc3o2)cc1	4.78
O=C(Nc1ccccc1O)c1ccc(NC(=O)C2CC2)cc1	5.37
O=Nc1c(-c2c(O)[nH]c3cc(Br)ccc23)[nH]c2ccccc12	0.942
Cc1ccc(C(=O)Nc2cccc(-c3ccc(N4CCOCC4)nn3)c2)cc1[N+](=O)[O-]	9.12
O=C(c1cc2ccccc2o1)c1cccs1	8.58
COc1ccc(C(=O)O/N=C(\N)c2ccc(Cl)cc2)cc1	9.22
CCOC(=O)c1c(C)[nH]c(C(=O)COC(=O)C2(C)CC2(Cl)Cl)c1C (configuration not stated)	6.45
O=C(c1cccs1)c1coc2ccc(O)cc12	15
O=C(/C=C\c1ccc(-c2ccccc2)o1)c1ccccc1	4.16
O=C(Nc1ccc(Br)cn1)c1ccc(Br)s1	4.78
